Measured values published in patent US12606578B2, “Crystal form of spirocyclic amine aryl phosphorus oxide compound and preparation method therefor” (Qilu Pharmaceutical Co., LTD., priority 2022, dated 2026).
In brackets after ≈: the same amount, converted by molar mass.

Assays:
[1] = Stability test under high temperature, high humidity and light (HPLC purity, XRPD); format: physicochemical; settings: for Purity: HPLC; for Crystal form: XRPD
Description: Determination of HPLC is performed by Waters e2695 high performance liquid chromatograph to analyze the samples.
The stability of the crystal form Q4 of the compound of Formula (I) under high temperature, high humidity and light conditions was investigated. After placing for 5 days and 10 days under specific conditions, purity was tested by HPLC, and XRPD was performed.

[2] = Hydroscopicity experiment (DVS water sorption/desorption); format: physicochemical
From the text: Description of hydroscopicity characteristics and definition of hygroscopic weight gain (Chinese Pharmacopoeia 2020 Edition, General Chapter 9103, Guidelines for Hydroscopicity Trials for Pharmaceuticals): • Deliquescence: absorb enough water to form liquid; • Extremely hygroscopic: the hygroscopic weight gain is not less than 15.0%; • Hygroscopic: hygroscopic weight gain is less than 15.0% but not less than 2.0%; • Mild hygroscopic: hygroscopic weight gain is less than 2.0% but not less than 0.2%; • Non-or almost non-hygroscopic: the hygroscopic weight gain is less than 0.2%.
The hydroscopicity of the samples was determined using a DVS Intrinsic dynamic vapor sorption analyzer. The samples were placed in a peeled sample basket, the instrument weighed automatically, and the samples were analyzed according to the parameters in Table 4.
According to “Guidelines for Hydroscopicity Trials for Pharmaceuticals” in Chinese Pharmacopoeia 2020 Edition, the data of water sorption/desorption of the crystal form Q4 of the compound of Formula (I) were tested.

[3] = Equilibrium solubility in four media with XRPD of the solids; format: physicochemical; settings: for Solubility / Crystal transformation before and after the solubility test: 37° C.; for Solubility / solubility at 24 h: 200 rpm; for Solubility / Crystal transformation before and after the solubility test / solubility at 24 h: 24 h; for Crystal transformation before and after the solubility test: four media, XRPD; for solubility at 24 h: 37 °C, thermodynamic from solid
Description: At 37° C., appropriate amounts of the crystal form Q4 and crystal form A of the compound of Formula (I) were taken and dispersed in water, artificial gastric fluid (SGF, Simulated Gastric Fluid), artificial intestinal fluid under fed state (FeSSIF, Fed State Simulated Intestinal Fluid) and artificial intestinal fluid under fasted state (FaSSIF, Fasted State Simulated Intestinal Fluid) respectively to prepare suspension, and after equilibration at 200 rpm for 24 h, the content (mg/mL) of the sample in the solution were tested by HPLC and the samples in the solution were tested by XRPD, respectively.

[4] = Particle size analysis (PSA); format: physicochemical
Description: Malvern's laser scattering particle size distribution analyzer was used to analyze the particle size of solid powder. An appropriate amount of solid powder was taken into a sampler, the samples were tested according to the parameters listed in Table 5, and the data was analyzed by Mastersizer-v3.60.

[5] = Flow ability test (bulk density, tap density, Carr index); format: physicochemical
Description: The tap density was measured by SVM203 Tapped Density Meter.
Bulk density and tap density of bulk drugs with different crystal forms and particle sizes were tested, and Carr index was calculated.
Therefore, compared with the crystal form A, the crystal form Q4 has obvious advantages in terms of powder mixing uniformity of bulk drugs and the preparation of solid preparations.

[6] = disclosed in reference CN110407877, 90% RH; cited from earlier work
[7] = bulk drugs of substantially the same particle size used in flow ability test
[8] = bulk drug D90 69.2 μm (Q4), 62 μm (A)

COc1cc(N2CCC3(CCN(C)CC3)CC2)ccc1Nc1ncc(Cl)c(Nc2ccccc2P(C)(C)=O)n1 [Crystal form Q4]
Related substances: Impurity LG RRT = 1.98 ([1]; 40° C.-5 D): 0.04%
Related substances: Impurity LO RRT = 0.89 ([1]; 40° C.-5 D): 0.01%
Related substances: Impurity LP RRT = 1.16 ([1]; 40° C.-5 D): 0.02%
Related substances: Impurity QA RRT = 0.95 ([1]; 40° C.-5 D): 0.01%
Purity ([1]; 40° C.-5 D): 99.88%
Crystal form ([1]; 40° C.-5 D): form Q4
Related substances: Impurity LG RRT = 1.98 ([1]; 40° C.-10 D): 0.04%
Related substances: Impurity LO RRT = 0.89 ([1]; 40° C.-10 D): 0.01%
Related substances: Impurity LP RRT = 1.16 ([1]; 40° C.-10 D): 0.03%
Related substances: Impurity QA RRT = 0.95 ([1]; 40° C.-10 D): 0.01%
Purity ([1]; 40° C.-10 D): 99.87%
Crystal form ([1]; 40° C.-10 D): form Q4
Related substances: Impurity LG RRT = 1.98 ([1]; 60° C.-5 D): 0.04%
Related substances: Impurity LO RRT = 0.89 ([1]; 60° C.-5 D): 0.01%
Related substances: Impurity LP RRT = 1.16 ([1]; 60° C.-5 D): 0.02%
Related substances: Impurity QA RRT = 0.95 ([1]; 60° C.-5 D): 0.01%
Purity ([1]; 60° C.-5 D): 99.86%
Crystal form ([1]; 60° C.-5 D): form Q4
Related substances: Impurity LG RRT = 1.98 ([1]; 60° C.-10 D): 0.04%
Related substances: Impurity LO RRT = 0.89 ([1]; 60° C.-10 D): 0.01%
Related substances: Impurity LP RRT = 1.16 ([1]; 60° C.-10 D): 0.02%
Related substances: Impurity QA RRT = 0.95 ([1]; 60° C.-10 D): 0.01%
Purity ([1]; 60° C.-10 D): 99.88%
Crystal form ([1]; 60° C.-10 D): form Q4
Related substances: Impurity LG RRT = 1.98 ([1]; 75RH-5 D): 0.04%
Related substances: Impurity LO RRT = 0.89 ([1]; 75RH-5 D): 0.01%
Related substances: Impurity LP RRT = 1.16 ([1]; 75RH-5 D): 0.01%
Related substances: Impurity QA RRT = 0.95 ([1]; 75RH-5 D): 0.01%
Purity ([1]; 75RH-5 D): 99.88%
Crystal form ([1]; 75RH-5 D): form Q4
Related substances: Impurity LG RRT = 1.98 ([1]; 75RH-10 D): 0.04%
Related substances: Impurity LO RRT = 0.89 ([1]; 75RH-10 D): 0.01%
Related substances: Impurity LP RRT = 1.16 ([1]; 75RH-10 D): 0.02%
Related substances: Impurity QA RRT = 0.95 ([1]; 75RH-10 D): 0.01%
Purity ([1]; 75RH-10 D): 99.88%
Crystal form ([1]; 75RH-10 D): form Q4
Related substances: Impurity LG RRT = 1.98 ([1]; 90RH-5 D): 0.04%
Related substances: Impurity LO RRT = 0.89 ([1]; 90RH-5 D): 0.02%
Related substances: Impurity LP RRT = 1.16 ([1]; 90RH-5 D): 0.01%
Related substances: Impurity QA RRT = 0.95 ([1]; 90RH-5 D): 0.01%
Purity ([1]; 90RH-5 D): 99.87%
Crystal form ([1]; 90RH-5 D): form Q4
Related substances: Impurity LG RRT = 1.98 ([1]; 90RH-10 D): 0.04%
Related substances: Impurity LO RRT = 0.89 ([1]; 90RH-10 D): 0.01%
Related substances: Impurity LP RRT = 1.16 ([1]; 90RH-10 D): 0.03%
Related substances: Impurity QA RRT = 0.95 ([1]; 90RH-10 D): 0.01%
Purity ([1]; 90RH-10 D): 99.83%
Crystal form ([1]; 90RH-10 D): form Q4
Related substances: Impurity LG RRT = 1.98 ([1]; Light-5 D): 0.04%
Related substances: Impurity LO RRT = 0.89 ([1]; Light-5 D): 0.03%
Related substances: Impurity LP RRT = 1.16 ([1]; Light-5 D): 0.02%
Related substances: Impurity QA RRT = 0.95 ([1]; Light-5 D): 0.01%
Purity ([1]; Light-5 D): 99.82%
Crystal form ([1]; Light-5 D): form Q4
Related substances: Impurity LG RRT = 1.98 ([1]; Light-10 D): 0.03%
Related substances: Impurity LO RRT = 0.89 ([1]; Light-10 D): 0.03%
Related substances: Impurity LP RRT = 1.16 ([1]; Light-10 D): 0.02%
Related substances: Impurity QA RRT = 0.95 ([1]; Light-10 D): 0.01%
Purity ([1]; Light-10 D): 99.86%
Crystal form ([1]; Light-10 D): form Q4
Related substances: Impurity LG RRT = 1.98 ([1]; Start): 0.03%
Related substances: Impurity LO RRT = 0.89 ([1]; Start): 0.01%
Related substances: Impurity LP RRT = 1.16 ([1]; Start): 0.02%
Related substances: Impurity QA RRT = 0.95 ([1]; Start): 0.01%
Purity ([1]; Start): 99.90%
Crystal form ([1]; Start): form Q4
Degradation / stability ([1]; high temperature, high humidity and light conditions, 5 and 10 days): no obvious degradation
Evaluation of hydroscopicity ([2]; Chinese Pharmacopoeia 2020 criteria, weight gain at 80% RH): non- or almost non-hygroscopic
80% RH weight gain ([2]; DVS, 80% RH): 0.10%
90% RH weight gain ([2]; DVS, 90% RH): 0.12%
Crystal transformation, XRPD before and after DVS test ([2]; before and after DVS test): no crystal transformation before and after the test
Hydroscopicity compared with the crystal forms A, B and C ([2]; hygroscopic weight gain comparison): less hydroscopicity than the crystal forms A, B and C
Solubility compared with the crystal form A ([3]; FaSSIF): better than that of the crystal form A
Solubility ([3]; FaSSIF (pH 6.5)): 5750 µg/mL (≈ 10.1 mM)
Solubility ([3]; FeSSIF (pH 5.0)): 23560 µg/mL (≈ 41.4 mM)
Solubility ([3]; SGF (pH 1.8)): 9280 µg/mL (≈ 16.3 mM)
Solubility ([3]; Water): 40 µg/mL (≈ 0.0703 mM)
Crystal transformation before and after the solubility test [3]: do not transform before and after the test
D10 ([4]; PSA, Example 3 batch): 10.8 μm
D50 ([4]; PSA, Example 3 batch): 62.6 μm
D90 ([4]; PSA, Example 3 batch): 145.2 μm
Particle size of bulk D90 [4, 7]: 69.2 μm
Particle size of bulk D90 ([4]; larger particle size Q4 bulk drug used in flow ability test): 145.2 μm
Bulk density [5, 8]: 0.28 g/mL
Carr index: (tap density-bulk density)/tap density [5, 8]: 24.32%
Evaluation (flow ability) [5, 8]: fair flow
Tap density [5, 8]: 0.37 g/mL
Bulk density ([5]; bulk drug D90 145.2 μm): 0.42 g/mL
Carr index: (tap density-bulk density)/tap density ([5]; bulk drug D90 145.2 μm): 17.65%
Evaluation (flow ability) ([5]; bulk drug D90 145.2 μm): good or medium (16 to 20%)
Tap density ([5]; bulk drug D90 145.2 μm): 0.51 g/mL
Flow ability compared with the crystal form A ([5]; substantially the same particle size): better flow ability compared with the crystal form A

COc1cc(N2CCC3(CCN(C)CC3)CC2)ccc1Nc1ncc(Cl)c(Nc2ccccc2P(C)(C)=O)n1 [Crystal form A, reference compound]
solubility at 24 h ([3]; fasted state simulated intestinal fluid (FaSSIF), pH 6.5, fassif, FaSSIF (pH 6.5)): 4560 µg/mL (≈ 8.01 mM)
solubility at 24 h ([3]; fed state simulated intestinal fluid (FeSSIF), pH 5, fessif, FeSSIF (pH 5.0)): 23600 µg/mL (≈ 41.5 mM)
Crystal transformation before and after the solubility test [3]: do not transform before and after the test
solubility at 24 h ([3]; simulated gastric fluid (SGF), pH 1.8, simulated gastric fluid, SGF (pH 1.8)): 9300 µg/mL (≈ 16.3 mM)
solubility at 24 h ([3]; water): 40 µg/mL (≈ 0.0703 mM)
Particle size of bulk D90 [4, 7]: 62 μm
Weight gain under 90% RH humidity condition [6]: 0.17%
Bulk density [5, 8]: 0.48 g/mL
Carr index: (tap density-bulk density)/tap density [5, 8]: 31.43%
Evaluation (flow ability) [5, 8]: poor flow
Tap density [5, 8]: 0.70 g/mL

COc1cc(N2CCC3(CCN(C)CC3)CC2)ccc1Nc1ncc(Cl)c(Nc2ccccc2P(C)(C)=O)n1 [Crystal form B]
Weight gain under 90% RH humidity condition [6]: 0.70%

COc1cc(N2CCC3(CCN(C)CC3)CC2)ccc1Nc1ncc(Cl)c(Nc2ccccc2P(C)(C)=O)n1 [Crystal form C]
Weight gain under 90% RH humidity condition [6]: 0.62%
